≈ marks a conversion by molar mass, not a printed value.
What was measured:
E. coli ATCC 25922 = assay: MIC, E. coli ATCC 25922; format: cell-based; conditions: Alamar Blue read after overnight incubation at 35° C.; for MIC: Escherichia coli, ATCC25922, E. coli; for MIC Ec: E. coli
S. aureus ATCC 13709 = assay: MIC, S. aureus ATCC 13709 (Alamar Blue broth microdilution); format: cell-based; conditions: Alamar Blue read after overnight incubation at 35° C.; for MIC: Staphylococcus aureus, ATCC13709, S. aureus; for MIC Sa: S. aureus

## CNc1cccc2c1[nH]c1nc(Sc3cnc4ccc[n+]([O-])c4c3)nc(N3CC(N)C4(CC4)C3)c12 (stereo not shown) [1.40]
E. coli ATCC 25922
  MIC: 1 µg/mL (≈ 2.06 µM)
S. aureus ATCC 13709
  MIC: ≤ 0.5 µg/mL

## CNc1cc(F)cc2c1[nH]c1nc(Oc3cnc(SC)nc3)nc(N3CCC(N)C3)c12 (stereo not shown) [4.199]
E. coli ATCC 25922
  MIC Ec: ≤0.5 µg/mL
S. aureus ATCC 13709
  MIC Sa: ≤0.5 µg/mL

## CNc1cc(F)cc2c1[nH]c1nc(Oc3cncc(C(N)=O)c3)nc(N3CC4CC(N)C4C3)c12 (stereo not shown) [4.236]
E. coli ATCC 25922
  MIC: ≤ 0.5 µg/mL
S. aureus ATCC 13709
  MIC: ≤ 0.5 µg/mL

## CNc1cc(F)cc2c1[nH]c1nc(Oc3cnc(CC(=O)NOC)nc3)nc(N3CC(N)C4(CC4)C3)c12 (stereo not shown) [4.371]
E. coli ATCC 25922
  MIC Ec: 16 µg/mL (≈ 31.5 µM)
S. aureus ATCC 13709
  MIC Sa: 1 µg/mL (≈ 1.97 µM)

## CNc1cc(F)cc2c1[nH]c1nc(Oc3cnc(N4CC(C)(N)C4)nc3)nc(N3C[C@H](N)C4(CC4)C3)c12 [4.340]
E. coli ATCC 25922
  MIC Ec: 2 µg/mL (≈ 3.96 µM)
S. aureus ATCC 13709
  MIC Sa: 1 µg/mL (≈ 1.98 µM)

## CNc1cc(F)cc2c1[nH]c1nc(Oc3cnc(N)nc3)nc(N3CCC4(CC4N)C3)c12 (stereo not shown) [4.173]
E. coli ATCC 25922
  MIC: 1 µg/mL (≈ 2.3 µM)
S. aureus ATCC 13709
  MIC: ≤ 0.5 µg/mL

## CNc1cc(F)cc2c1[nH]c1nc(Oc3cncnc3)nc(N3CC(N)C4(CC4)C3)c12 (stereo not shown) [4.002]
E. coli ATCC 25922
  MIC: ≤ 0.5 µg/mL
S. aureus ATCC 13709
  MIC: ≤ 0.5 µg/mL

## COc1cccc2c1[nH]c1nc(Oc3cncnc3)nc(N3CC4C(N)C4C3)c12 (stereo not shown) [2.13]
E. coli ATCC 25922
  MIC Ec: 64 µg/mL (≈ 164 µM)
S. aureus ATCC 13709
  MIC Sa: 2 µg/mL (≈ 5.14 µM)

## CNc1cccc2c1[nH]c1nc(Oc3cncc(F)c3)nc(N3CCC4(CNC4)C3)c12 [3.66]
E. coli ATCC 25922
  MIC: > 32 µg/mL
S. aureus ATCC 13709
  MIC: 8 µg/mL (≈ 19.1 µM)

## CNc1cc(F)c(F)c2c1[nH]c1nc(Oc3cnc4c(c3)ncn4C3CC3)nc(N3C[C@H]4C[C@@H]3C[C@H]4N)c12 [5.15]
E. coli ATCC 25922
  MIC: 1 µg/mL (≈ 1.93 µM)
S. aureus ATCC 13709
  MIC: ≤ 0.5 µg/mL

## CNc1cc(F)cc2c1[nH]c1nc(Oc3cncc(C#N)c3)nc(N3CCC4(CC4N)C3)c12 (stereo not shown) [4.052]
E. coli ATCC 25922
  MIC: ≤ 0.5 µg/mL
S. aureus ATCC 13709
  MIC: ≤ 0.5 µg/mL

## CNc1cc(F)cc2c1[nH]c1nc(Oc3cnc(C)nc3)nc(N3CC4CNC4C3)c12 (stereo not shown) [4.067]
E. coli ATCC 25922
  MIC: ≤ 0.5 µg/mL
S. aureus ATCC 13709
  MIC: ≤ 0.5 µg/mL

## CNc1cc(F)cc2c1[nH]c1nc(Oc3cncc(Cl)c3)nc(N3CC4CC(N)C4C3)c12 (stereo not shown) [4.271]
E. coli ATCC 25922
  MIC Ec: ≤0.5 µg/mL
S. aureus ATCC 13709
  MIC Sa: ≤0.5 µg/mL

## CNc1cc(F)cc2c1[nH]c1nc(Oc3cnc4cccnc4c3)nc(N3C[C@H](N)C4(CC4)C3)c12 [4.038]
E. coli ATCC 25922
  MIC: ≤ 0.5 µg/mL
S. aureus ATCC 13709
  MIC: ≤ 0.5 µg/mL

## CNc1cc(F)cc2c1[nH]c1nc(Oc3cncnc3)nc(N3CC4CC4(N)C3)c12 (stereo not shown) [4.005]
E. coli ATCC 25922
  MIC: ≤ 0.5 µg/mL
S. aureus ATCC 13709
  MIC: ≤ 0.5 µg/mL

## Cc1cc(F)cc2c1[nH]c1nc(Oc3cncnc3)nc(N3CC4C(N)C4C3)c12 (stereo not shown) [2.7]
E. coli ATCC 25922
  MIC: > 16 µg/mL
S. aureus ATCC 13709
  MIC: 4 µg/mL (≈ 10.2 µM)

## CNc1cc(F)cc2c1[nH]c1nc(Oc3cnc(C)nc3)nc(N3CC4[C@H](N)C[C@]4(C)C3)c12 (stereo partly shown) [4.146]
E. coli ATCC 25922
  MIC: ≤ 0.5 µg/mL
S. aureus ATCC 13709
  MIC: ≤ 0.5 µg/mL

## CNc1cccc2c1[nH]c1nc(Oc3cncnc3)nc(N3CC(N)C(O)C3)c12 (stereo not shown) [3.8]
E. coli ATCC 25922
  MIC: > 64 µg/mL
S. aureus ATCC 13709
  MIC: 16 µg/mL (≈ 40.8 µM)

## CNc1cc(F)cc2c1[nH]c1nc(Oc3cnc(N(C)C)nc3)nc(N3CCC(N)C3)c12 (stereo not shown) [4.207]
E. coli ATCC 25922
  MIC Ec: ≤0.5 µg/mL
S. aureus ATCC 13709
  MIC Sa: ≤0.5 µg/mL

## CNc1ncnc2c1[nH]c1nc(Oc3cncnc3)nc(Oc3cncnc3)c12 [7.10]
E. coli ATCC 25922
  MIC: > 64 µg/mL
S. aureus ATCC 13709
  MIC: > 64 µg/mL

## CNc1cccc2c1[nH]c1nc(Sc3cnc4ccc[n+]([O-])c4c3)nc(N3CC4C(C3)C4NC(=O)[C@H](C)N)c12 (stereo partly shown) [1.52]
E. coli ATCC 25922
  MIC: 16 µg/mL (≈ 29.5 µM)
S. aureus ATCC 13709
  MIC: 1 µg/mL (≈ 1.85 µM)

## CNc1cc(F)cc2c1[nH]c1nc(Oc3cnc4cccnc4c3)nc(N3C[C@@H]4[C@H](C3)[C@@]4(N)C(N)=O)c12 [4.039]
E. coli ATCC 25922
  MIC: 2 µg/mL (≈ 4 µM)
S. aureus ATCC 13709
  MIC: ≤ 0.5 µg/mL

## CNc1cc(F)cc2c1[nH]c1nc(Oc3cnc(C4CCC4)nc3)nc(N3CC4C(N)C4C3)c12 (stereo not shown) [4.286]
E. coli ATCC 25922
  MIC: ≤ 0.5 µg/mL
S. aureus ATCC 13709
  MIC: ≤ 0.5 µg/mL

## CNc1cc(F)cc2c1[nH]c1nc(Oc3cncc(C#N)c3)nc(N3CC(N)C4(CC4)C3)c12 (stereo not shown) [4.051]
E. coli ATCC 25922
  MIC: 2 µg/mL (≈ 4.5 µM)
S. aureus ATCC 13709
  MIC: ≤ 0.5 µg/mL

## CNc1cc(F)cc2c1[nH]c1nc(Oc3cnc(C)nc3)nc(N3CC4CC3CC4N)c12 (stereo not shown) [4.128]
E. coli ATCC 25922
  MIC Ec: 4 µg/mL (≈ 9.21 µM)
S. aureus ATCC 13709
  MIC Sa: ≤0.5 µg/mL

## CNc1cc(F)cc2c1[nH]c1nc(Oc3cncnc3)nc(N3CCC(N)C3)c12 (stereo not shown) [4.007]
E. coli ATCC 25922
  MIC Ec: ≤0.5 µg/mL
S. aureus ATCC 13709
  MIC Sa: ≤0.5 µg/mL

Reference: patent publication US10858360B2, “Tricyclic gyrase inhibitors” (priority 2011, dated 2020)
